Laboratory results published in US11459325B2, “Heterocyclic compound” (Takeda Pharmaceutical Company Limited, priority 2018, dated 2022).

System: GBA mutant human fibroblasts GM008760
Test: Glucosylceramide lowering assay
Assay type: cell-based
Conditions: Homo sapiens, Fibroblast, 96 h; 10 μM test compound, 4 days culture; GlcCer (C16:0)/Cer (C16:0) molar ratio of test compound group relative to DMSO control group x100; smaller value = glucosylceramide lowering
Description: Glucosylceramide Lowering Assay
Using GBA mutant human fibroblasts containing mutated glucosylceramidase, the effect of test compounds on glucosylceramide reduction was evaluated.
GBA mutant human fibroblasts GM008760 (Coriel Institute) were seeded in a 96-well multiwell plate at a density of 5,000 cells/100 μL culture solution/well. GlutaMAX (Thermo Fishcer Scientific), penicillin-streptomycin, and Minimum Essential Media (Thermo Fishcer Scientific) supplemented with 15% fetal bovine serum were used as a culture solution. After culturing for 2 days, a 10 mM DMSO solution of the test compound diluted with the culture solution was added to a 96-well plate by 100 μL to adjust a final test compound concentration to 10 μM. After culturing the cells for 4 days in the presence of the test compound, the culture solution was removed, and the cells adhered to the 96-well plate were washed with a phosphate buffer (ThermoFisher Scientific, product number 14190-144). A solvent composed of 50% ethanol and 50% isopropanol was added to the 96-well plate by 100 μL, and the intracellular lipids were dissolved by pipetting. A solution prepared by dissolving N-Octadecanoyl-D35-psychosine (50 ng/mL, Matreya LLC Inc.) as an internal standard in 50% ethanol and 50% isopropanol was added to the sample in an equal volume, and 2.5 μL of the centrifuged supernatant was used as the test compound group.
In the same manner as above, a control group was prepared by using DMSO instead of the 10 mM DMSO solution of the test compound.
For the test compound group and the control group, molar concentrations of glucosylceramide [GlcCer (C16:0)] and ceramide [Cer (C16:0)] were quantified using Rapidfire-MS/MS (API-5000, Turbo-ESI, SRM), and the glucosylceramide lowering effect of the test compound group relative to the control group was evaluated by the following formula. (GlcCer/Cer of test compound group)/(GlcCer/Cer of control group)×100 wherein GlcCer/Cer is the ratio of the molar concentration of glucosylceramide to that of ceramide.
In this test, when the numerical value obtained by the above calculation formula is small, glucosylceramide is metabolized to ceramide by the test compound, or the synthesis of glucosylceramide from ceramide is inhibited by the test compound, that is, it can be said that the test compound has a glucosylceramide lowering effect.

| Structure (SMILES) | activity at 10 µM |
| --- | --- |
| COc1ccccc1-n1cc(C)c2c(c(C(=O)NC3CCCCC3)cn2C)c1=O [Example 107, N-cyclohexyl-5-(2-methoxyphenyl)-1,7-dimethyl-4-oxo-4,5-dihydro-1H-pyrrolo[3,2-c]pyridine-3-carboxamide] | 50% |
| COc1ccccc1-n1cc(C)c2c(c(C(=O)Nc3ccccc3)cn2C)c1=O [Example 108, 5-(2-methoxyphenyl)-1,7-dimethyl-4-oxo-N-phenyl-4,5-dihydro-1H-pyrrolo[3,2-c]pyridine-3-carboxamide] | 67% |
| Cc1cn(C)c(=O)c2c(C(=O)N3CC4CC4(c4cccc(Cl)c4)C3)cn(C)c12 (centres unmarked) [Example 118, 3-((1-(3-chlorophenyl)-3-azabicyclo[3.1.0]hex-3-yl)carbonyl)-1,5,7-trimethyl-1,5-dihydro-4H-pyrrolo[3,2-c]pyridin-4-one] | 59% |
| Cc1cn(C)c(=O)c2c(C(=O)N3CC4CC4(c4ccc(Cl)c(Cl)c4)C3)cn(C)c12 (centres unmarked) [Example 120, 3-((1-(3,4-dichlorophenyl)-3-azabicyclo[3.1.0]hex-3-yl)carbonyl)-1,5,7-trimethyl-1,5-dihydro-4H-pyrrolo[3,2-c]pyridin-4-one] | 50% |
| Cc1cn(C)c(=O)c2c(C(=O)N3CC4CC4(c4cccc(Cl)c4Cl)C3)cn(C)c12 (centres unmarked) [Example 121, 3-((1-(2,3-dichlorophenyl)-3-azabicyclo[3.1.0]hex-3-yl)carbonyl)-1,5,7-trimethyl-1,5-dihydro-4H-pyrrolo[3,2-c]pyridin-4-one] | 68% |
| Cc1cn(C)c(=O)c2c(C(=O)N3CC4CC4(c4cc(Cl)cc(Cl)c4)C3)cn(C)c12 (centres unmarked) [Example 122, 3-((1-(3,5-dichlorophenyl)-3-azabicyclo[3.1.0]hex-3-yl)carbonyl)-1,5,7-trimethyl-1,5-dihydro-4H-pyrrolo[3,2-c]pyridin-4-one] | 54% |
| Cc1cn(C)c(=O)c2c(C(=O)N3CC4CC4(c4cc(Cl)ccc4Cl)C3)cn(C)c12 (centres unmarked) [Example 123, 3-((1-(2,5-dichlorophenyl)-3-azabicyclo[3.1.0]hex-3-yl)carbonyl)-1,5,7-trimethyl-1,5-dihydro-4H-pyrrolo[3,2-c]pyridin-4-one] | 47% |
| Cc1cn(C)c(=O)c2c(C(=O)N3CC4CC4(c4ccc(F)cc4)C3)cn(C)c12 (centres unmarked) [Example 124, 3-((1-(4-fluorophenyl)-3-azabicyclo[3.1.0]hex-3-yl)carbonyl)-1,5,7-trimethyl-1,5-dihydro-4H-pyrrolo[3,2-c]pyridin-4-one] | 56% |
| Cc1cn(C)c(=O)c2c(C(=O)N3CC4CC4(c4ccccc4F)C3)cn(C)c12 (centres unmarked) [Example 126, 3-((1-(2-fluorophenyl)-3-azabicyclo[3.1.0]hex-3-yl)carbonyl)-1,5,7-trimethyl-1,5-dihydro-4H-pyrrolo[3,2-c]pyridin-4-one] | 61% |
| COc1ccc(C23CC2CN(C(=O)c2cn(C)c4c(C)cn(C)c(=O)c24)C3)cc1 (centres unmarked) [Example 127, 3-((1-(4-methoxyphenyl)-3-azabicyclo[3.1.0]hex-3-yl)carbonyl)-1,5,7-trimethyl-1,5-dihydro-4H-pyrrolo[3,2-c]pyridin-4-one] | 65% |
| Cc1cn(C)c(=O)c2c(C(=O)N3CC4CC4(c4ccc(OC(F)(F)F)cc4)C3)cn(C)c12 (centres unmarked) [Example 130, 1,5,7-trimethyl-3-((1-(4-(trifluoromethoxy)phenyl)-3-azabicyclo[3.1.0]hex-3-yl)carbonyl)-1,5-dihydro-4H-pyrrolo[3,2-c]pyridin-4-one] | 21% |
| Cc1cn(C)c(=O)c2c(C(=O)N3CC4CC4(c4cccc(OC(F)(F)F)c4)C3)cn(C)c12 (centres unmarked) [Example 131, 1,5,7-trimethyl-3-((1-(3-(trifluoromethoxy)phenyl)-3-azabicyclo[3.1.0]hex-3-yl)carbonyl)-1,5-dihydro-4H-pyrrolo[3,2-c]pyridin-4-one] | 63% |
| Cc1cn(C)c(=O)c2c(C(=O)N3CC4CC4(c4ccccc4C(F)(F)F)C3)cn(C)c12 (centres unmarked) [Example 137, 1,5,7-trimethyl-3-((1-(2-(trifluoromethyl)phenyl)-3-azabicyclo[3.1.0]hex-3-yl)carbonyl)-1,5-dihydro-4H-pyrrolo[3,2-c]pyridin-4-one] | 64% |
| Cc1cn(C)c(=O)c2c(C(=O)N3CC4CC4(c4ccc(C(F)(F)F)c(F)c4)C3)cn(C)c12 (centres unmarked) [Example 138, 3-((1-(3-fluoro-4-(trifluoromethyl)phenyl)-3-azabicyclo[3.1.0]hex-3-yl)carbonyl)-1,5,7-trimethyl-1,5-dihydro-4H-pyrrolo[3,2-c]pyridin-4-one] | 39% |
| Cc1cn(C)c(=O)c2c(C(=O)N3CC4CC4(c4ccc(OC(F)(F)F)c(F)c4)C3)cn(C)c12 (centres unmarked) [Example 139, 3-((1-(3-fluoro-4-(trifluoromethoxy)phenyl)-3-azabicyclo[3.1.0]hex-3-yl)carbonyl)-1,5,7-trimethyl-1,5-dihydro-4H-pyrrolo[3,2-c]pyridin-4-one] | 37% |
| Cc1cn(C)c(=O)c2c(C(=O)N3CC4CC4(c4cc(Cl)cc(C(F)(F)F)c4)C3)cn(C)c12 (centres unmarked) [Example 140, 3-((1-(3-chloro-5-(trifluoromethyl)phenyl)-3-azabicyclo[3.1.0]hex-3-yl)carbonyl)-1,5,7-trimethyl-1,5-dihydro-4H-pyrrolo[3,2-c]pyridin-4-one] | 49% |
| Cc1cn(C)c(=O)c2c(C(=O)N3CC4CC4(c4ccc(Cl)c(C(F)(F)F)c4)C3)cn(C)c12 (centres unmarked) [Example 141, 3-((1-(4-chloro-3-(trifluoromethyl)phenyl)-3-azabicyclo[3.1.0]hex-3-yl)carbonyl)-1,5,7-trimethyl-1,5-dihydro-4H-pyrrolo[3,2-c]pyridin-4-one] | 47% |
| Cc1ccc(C23CN(C(=O)c4cn(C)c5c(C)cn(C)c(=O)c45)CC2C3(F)F)cc1 (centres unmarked) [Example 146, 3-((6,6-difluoro-1-(4-methylphenyl)-3-azabicyclo[3.1.0]hex-3-yl)carbonyl)-1,5,7-trimethyl-1,5-dihydro-4H-pyrrolo[3,2-c]pyridin-4-one] | 65% |
| Cc1cn(C)c(=O)c2c(C(=O)N3CC4CC4(c4ccccc4OC(F)(F)F)C3)cn(C)c12 (centres unmarked) [Example 151, 1,5,7-trimethyl-3-((1-(2-(trifluoromethoxy)phenyl)-3-azabicyclo[3.1.0]hex-3-yl)carbonyl)-1,5-dihydro-4H-pyrrolo[3,2-c]pyridin-4-one] | 46% |
| Cc1cn(C)c(=O)c2c(C(=O)N3CCC4(c5ccc(Cl)cc5)C(C3)C4(F)F)cn(C)c12 (centres unmarked) [Example 153, 3-((6-(4-chlorophenyl)-7,7-difluoro-3-azabicyclo[4.1.0]hept-3-yl)carbonyl)-1,5,7-trimethyl-1,5-dihydro-4H-pyrrolo[3,2-c]pyridin-4-one] | 60% |
| Cc1cn(C)c(=O)c2c(C(=O)N3CCC4(c5cccc(Cl)c5)C(C3)C4(F)F)cn(C)c12 (centres unmarked) [Example 155, 3-((6-(3-chlorophenyl)-7,7-difluoro-3-azabicyclo[4.1.0]hept-3-yl)carbonyl)-1,5,7-trimethyl-1,5-dihydro-4H-pyrrolo[3,2-c]pyridin-4-one] | 53% |
| Cc1cn(C)c(=O)c2c(C(=O)N3CCC(F)(c4ccc(Cl)cc4)C3)cn(C)c12 (centres unmarked) [Example 168, 3-((3-(4-chlorophenyl)-3-fluoropyrrolidin-1-yl)carbonyl)-1,5,7-trimethyl-1,5-dihydro-4H-pyrrolo[3,2-c]pyridin-4-one] | 40% |
| Cc1cn(C)c(=O)c2c(C(=O)N3CCC(Oc4cccc(C(F)(F)F)c4)CC3)cn(C)c12 [Example 176, 1,5,7-trimethyl-3-((4-(3-(trifluoromethyl)phenoxy)piperidin-1-yl)carbonyl)-1,5-dihydro-4H-pyrrolo[3,2-c]pyridin-4-one] | 56% |
| Cc1cn(C)c(=O)c2c(C(=O)N3CCC(Oc4ccc(Cl)c(Cl)c4)CC3)cn(C)c12 [Example 178, 3-((4-(3,4-dichlorophenoxy)piperidin-1-yl)carbonyl)-1,5,7-trimethyl-1,5-dihydro-4H-pyrrolo[3,2-c]pyridin-4-one] | 42% |
| Cc1cn(C)c(=O)c2c(C(=O)N3CCC(Oc4cccc(Cl)c4)CC3)cn(C)c12 [Example 188, 3-((4-(3-chlorophenoxy)piperidin-1-yl)carbonyl)-1,5,7-trimethyl-1,5-dihydro-4H-pyrrolo[3,2-c]pyridin-4-one] | 65% |
| Cc1cn(C)c(=O)c2c(C(=O)N3CCC(Oc4ccc(Cl)cc4)CC3)cn(C)c12 [Example 189, 3-((4-(4-chlorophenoxy)piperidin-1-yl)carbonyl)-1,5,7-trimethyl-1,5-dihydro-4H-pyrrolo[3,2-c]pyridin-4-one] | 36% |
